Results on one compound are retold here after patent publication US12012636B2, “Pulmonary hypertension biomarker” (NOVARTIS AG, priority 2014, dated 2024).

The assay concerns candidate biomarker gene transcripts (Ccl21, Col18a1, Cxcl12, Cxcl13, Dmp1, Frzb) in rat Hy/Su lungs. The assay is described as follows: Candidate biomarker mRNA levels (QPCR) in lung in the hypoxia/Sugen rat model of PH following treatment with Imatinib. It counts as in vivo. The protocol: Sugen (250 mg; SU5416; Sigma-Aldrich®) was dissolved in vehicle (12.5 ml; 0.5% (wt/vol) carboxyl methylcellulose sodium, 0.9% (wt/vol) NaCl, 0.4% (vol/vol) polysorbate, 0.9% (vol/vol) benzyl alcohol in deionized water), sonicated for 15 min and then vortexed. On day 0, animals were anaesthetized, weighed and received Sugen 20 mg/kg by sub-cutaneous injection. […] Control animals remained in room air (21% O2) to serve as normoxic controls for the study. After 2 weeks, all animals were removed from the hypoxia chamber. At week 4, the animals were subjected to echocardiographic measurements under sevoflurane anaesthesia and monitored closely until fully recovered. Animals underwent RV catheterization for measurement of right ventricular pressure (RVP) under a mixture of ketamin and medetomidine anaesthesia. Following euthanasia by Schedule 1, the left lobe of the lung was removed, inflated and fixed in 10% formalin and embedded in paraffin for histological analysis. Lobes of the right lung were snap frozen for transcriptional profiling.
Frozen rat lung samples, collected in TT2 tissue bags (K Bioscience® Cat #520021) were crushed using the Covaris CryoPrep CP02. Total RNA from the crushed lung samples was extracted by RNeasy Mini kit according to the manufacturer's protocol (Qiagen™). Genomic DNA was removed by treatment with DNase I (Turbo DNase kit, Invitrogen). The exact quantification of RNA was determined with a NanoDrop ND-1000 spectrophotometer. RNA quality was assessed by analyzing 18S and 28S rRNAs by microfluidics-based electrophoresis on a 2100 Bioanalyzer (Agilent Technologies, Santa Clara, Calif.).
All animal procedures were conducted as described above.
In this study, following administration of an initial dose of Sugen on day 0 and a period of 14 days in a hypoxia chamber following, rats were administered 100 mg/kg of Imatinib or vehicle control daily for a further two weeks.
Following euthanasia by Schedule 1, the left lobe of the lung was removed, inflated and fixed in 10% formalin and embedded in paraffin for histological analysis, by airway inflation. Tissue sections (3 μm) were stained with antibodies against von Willebrand factor (vWF) and α-smooth muscle actin (α-SMA). Slides were examined using a DMLB and confocal microscope, digital camera, and IM50 imaging software (Leica Microsystems, London, UK). Small pulmonary vessels (10-100 μm diameter indicated by vWF staining) were assessed for degrees of circumferential α-SMA-positive staining indicative of muscularisation. Lobes of the right lung were snap frozen for candidate biomarker mRNA expression measurements. Total RNA was extracted and underwent quality control as mentioned in section above.
cDNA was synthesised using the High Capacity RNA-to-cDNA Kit (Invitrogen) according to the kit manufacturer's protocol. QPCR was performed on an ABI Prism 7900HT sequence detection system (Applied Biosystems, USA), using TaqMan Universal PCR Master Mix (Applied Biosystems). Taqman assays were purchased from Applied Biosystems®. Relative expression was normalised to a combination of 10 different housekeeping genes. Data were analyzed using the SDS RQ Manager, software (Applied Biosystems, version 2.4). Normalised gene expression values for each gene (2^−Δct) were plotted and analysed using a two-way ANOVA in GraphPad Prism 6.02.

The mark [1] stands for this setting: rat Hy/Su lungs, Imatinib 100 mg/kg daily for two weeks vs vehicle, QPCR.

As to `Cc1ccc(NC(=O)c2ccc(CN3CCN(C)CC3)cc2)cc1Nc1nccc(-c2cccnc2)n1` [Imatinib], the “CCL21 mRNA expression levels in lung samples” value (day 28, imatinib group vs vehicle treated animals (increased vs naïve controls)) is reported as “decrease”. Moreover, under setting [1], the “Ccl21 gene transcript in lung” value is on record as “down-regulated”, the “Col18a1 gene transcript in lung” value is listed as “down-regulated”, the “Cxcl12 gene transcript in lung” value was “down-regulated” and the “Cxcl13 gene transcript in lung” value is “down-regulated”. In addition, under setting [1], the “Dmp1 gene transcript in lung” value was “down-regulated” and the “Frzb gene transcript in lung” value is given as “down-regulated”.
